Data reported in the supplement of paper PMC5579334.

How the values were obtained:
HSC1 [1] = assay: relative IC50 (inflection point of fitted dose-response curve, CellTox-Green cytotoxicity, 72 h; top asymptote may be below 50%); higher = less potent
How it was run: (§1)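 MPNST cell lines and primary human Schwann cells were incubated 72 h at 37 °C in 384-well plates holding five 10-fold compound dilutions. CellTox-Green was added before seeding at a final 1:1000 dilution and reported fluorescence from DNA released by disrupted cells. Signals were scaled to vehicle and positive-control wells, and cultures failing plate quality control were dropped. Drug sensitivity score and relative IC50 come from four-parameter logistic fits, with IC50 censored at the top concentration.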

HSC2 [2] = assay: as above
How it was run: as §1

ST8814 [3] = assay: as above
How it was run: as §1

STS26T [4] = assay: as above
How it was run: as §1

HSC1 [5] = assay: relative IC50 (inflection point of fitted dose-response curve, CellTiter-Glo viability, 72 h; top asymptote may be below 50% inhibition); higher = less potent
How it was run: (§2)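 MPNST cell lines and primary human Schwann cells (750–1000 cells per well) went into 384-well plates preprinted with each compound at five concentrations in 10-fold steps. Plates were incubated 72 h at 37 °C, 5% CO2. Viability was read as CellTiter-Glo ATP luminescence, scaled between vehicle and positive-control wells, with duplicates averaged where present. Percent inhibition is at the top concentration; drug sensitivity score and relative IC50 (censored at top concentration) come from four-parameter logistic fits.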

HSC2 [6] = assay: as above
How it was run: as §2

S1507-2 = assay: as above
How it was run: as §2

ST8814 [7] = assay: as above
How it was run: as §2

STS26T [8] = assay: as above
How it was run: as §2

HS-PSS [9] = assay: relative IC50 (inflection point of fitted dose-response curve, CellTox-Green cytotoxicity, 72 h; top asymptote may be below 50%); higher = less potent
How it was run: as §1

HS-PSS [10] = assay: relative IC50 (inflection point of fitted dose-response curve, CellTiter-Glo viability, 72 h; top asymptote may be below 50% inhibition); higher = less potent
How it was run: as §2

HS-Sch-2 = assay: as above
How it was run: as §2

YST-1 = assay: as above
How it was run: as §2

S462 = assay: as above
How it was run: as §2

Structure (SMILES)	relative IC50 (HSC1 [1])	relative IC50 (HSC2 [2])	relative IC50 (ST8814 [3])	relative IC50 (STS26T [4])	relative IC50 (HSC1 [5])	relative IC50 (HSC2 [6])	relative IC50 (S1507-2)	relative IC50 (ST8814 [7])	relative IC50 (STS26T [8])	relative IC50 (HS-PSS [9])	relative IC50 (HS-PSS [10])	relative IC50 (HS-Sch-2)	relative IC50 (YST-1)	relative IC50 (S462)
CN(C)C(=N)NC(=N)N [Metformin aq]	> 100 µM	> 100 µM	> 100 µM	> 100 µM	> 100 µM	> 100 µM	> 100 µM	> 100 µM	> 100 µM	–	–	–	–	–
CN(C)/N=N/c1[nH]cnc1C(N)=O [Dacarbazine]	> 10 µM	> 10 µM	> 10 µM	> 10 µM	> 10 µM	> 10 µM	> 10 µM	> 10 µM	–	> 10 µM	> 10 µM	> 10 µM	> 10 µM	–
C[C@]12CC[C@@H]3c4ccc(O)cc4C[C@@H](CCCCCCCCC[S+]([O-])CCCC(F)(F)C(F)(F)F)[C@H]3[C@@H]1CC[C@@H]2O (stereo partly drawn) [Fulvestrant]	> 1 µM	> 1 µM	> 1 µM	> 1 µM	–	–	> 1 µM	> 1 µM	> 1 µM	> 1 µM	–	> 1 µM	> 1 µM	> 1 µM
Cn1c(=O)c(F)c(Nc2ccc(I)cc2F)c2c(=O)n(C[C@@H](O)CO)cnc21 [TAK-733]	> 1 µM	> 1 µM	0.218 µM	–	0.0973 µM	0.0906 µM	0.085 µM	0.0879 µM	0.0251 µM	> 1 µM	0.162 µM	0.152 µM	–	0.0585 µM
O=C(c1ccc(OCCN2CCCCC2)cc1)c1c(-c2ccc(O)cc2)sc2cc(O)ccc12 [Raloxifene]	> 10 µM	> 10 µM	3.43 µM	3.8 µM	3.1 µM	1.84 µM	3.1 µM	2.94 µM	3.28 µM	–	1.13 µM	1.81 µM	1.82 µM	–
Cn1cc(C[C@@H](N)C(=O)O)c2ccccc21 [1-methyl-D-tryptophan aq]	> 5 µM	> 5 µM	> 5 µM	–	> 5 µM	> 5 µM	> 5 µM	> 5 µM	> 5 µM	–	–	–	–	> 5 µM
COc1cccc2c1C(=O)c1c(O)c3c(c(O)c1C2=O)C[C@@](O)(C(=O)CO)C[C@@H]3O[C@H]1C[C@H](N)[C@H](O)[C@H](C)O1 [Doxorubicin]	–	0.346 µM	> 1 µM	–	0.0832 µM	0.109 µM	0.0725 µM	0.13 µM	0.0812 µM	0.367 µM	0.199 µM	0.133 µM	0.0549 µM	0.0712 µM
Cc1cccc(-c2nn3c(c2-c2ccnc4ccc(C(N)=O)cc24)CCC3)n1 [Galunisertib]	> 1 µM	> 1 µM	> 1 µM	> 1 µM	> 1 µM	–	> 1 µM	> 1 µM	–	> 1 µM	> 1 µM	> 1 µM	> 1 µM	–
CN(C)CCN1C(=O)c2cccc3cc(N)cc(c23)C1=O [Amonafide]	> 10 µM	–	3.15 µM	–	1.35 µM	1.85 µM	1.36 µM	1.69 µM	2.24 µM	2.15 µM	2.41 µM	1.7 µM	1.02 µM	1.65 µM
NC(=O)c1cccc2cn(-c3ccc(C4CCCNC4)cc3)nc12 (stereo not drawn) [MK-4827]	> 10 µM	> 10 µM	3.04 µM	–	2.11 µM	–	1.68 µM	1.65 µM	1.7 µM	–	–	–	–	1.4 µM
Oc1nc(-c2ccc(C(F)(F)F)cc2)nc2c1CSCC2 [XAV-939]	> 10 µM	> 10 µM	> 10 µM	–	0.286 µM	0.314 µM	1.58 µM	> 10 µM	–	> 10 µM	–	> 10 µM	–	> 10 µM
CNC(=O)c1ccc(N2C(=S)N(c3cnc(C#N)c(C(F)(F)F)c3)C(=O)C23CCC3)cc1F [ARN 509]	> 10 µM	> 10 µM	> 10 µM	–	> 10 µM	> 10 µM	> 10 µM	> 10 µM	> 10 µM	> 10 µM	–	–	–	> 10 µM
O=C(O)CC[C@H]1CC[C@@](c2cc(F)ccc2F)(S(=O)(=O)c2ccc(Cl)cc2)CC1 [MK-0752]	> 1 µM	> 1 µM	> 1 µM	> 1 µM	–	–	> 1 µM	> 1 µM	> 1 µM	> 1 µM	> 1 µM	–	> 1 µM	> 1 µM
COc1ncc(-c2ccc3nccc(-c4ccnnc4)c3c2)cc1NS(=O)(=O)c1ccc(F)cc1F	> 1 µM	> 1 µM	0.161 µM	–	0.0227 µM	0.0255 µM	0.0176 µM	0.0522 µM	0.0185 µM	–	–	–	–	0.0632 µM
c1cc(CN2CCCNCCNCCCNCC2)ccc1CN1CCCNCCNCCCNCC1 [Plerixafor aq]	> 10 µM	2.81 µM	> 10 µM	–	> 10 µM	> 10 µM	> 10 µM	> 10 µM	> 10 µM	–	–	–	–	> 10 µM
Cc1cnc(NC(=O)Nc2cc(Br)c(C)cc2OC[C@@H]2CNCCO2)cn1 [Rabusertib]	–	> 1 µM	> 1 µM	0.33 µM	–	–	0.236 µM	> 1 µM	0.189 µM	> 1 µM	–	0.302 µM	0.242 µM	0.319 µM
Cc1ccc(NC(=O)c2ccc(CN3CCN(C)CC3)cc2)cc1Nc1nccc(-c2cccnc2)n1 [Imatinib]	> 10 µM	> 10 µM	3.58 µM	> 10 µM	> 10 µM	> 10 µM	1.96 µM	3.53 µM	–	–	2.38 µM	3.19 µM	1.95 µM	–
COc1cc(Nc2ncc(F)c(Nc3ccc4c(n3)NC(=O)C(C)(C)O4)n2)cc(OC)c1OC [Tamatinib]	> 10 µM	–	–	–	0.665 µM	1.59 µM	> 10 µM	–	–	> 10 µM	> 10 µM	–	> 10 µM	> 10 µM
Cc1ccc(-n2nc(C(C)(C)C)cc2NC(=O)Nc2ccc(OCCN3CCOCC3)c3ccccc23)cc1 [Doramapimod]	> 10 µM	> 10 µM	> 10 µM	> 10 µM	3.01 µM	1.76 µM	> 10 µM	> 10 µM	> 10 µM	–	1.64 µM	2.33 µM	0.667 µM	–
CC(C)(C)Cn1c(N)nc2ccc(-c3[nH]c(C(C)(C)C)nc3-c3ccc(F)cc3)nc21 [Ralimetinib]	> 10 µM	> 10 µM	> 10 µM	> 10 µM	2.33 µM	0.474 µM	2.14 µM	1.56 µM	2.92 µM	> 10 µM	4.09 µM	3.33 µM	0.115 µM	–
Cn1cnc(-c2cc3nccc(Oc4ccc(NC(=S)NC(=O)Cc5ccccc5)cc4F)c3s2)c1 [MGCD-265]	> 10 µM	–	–	> 10 µM	–	–	0.501 µM	0.439 µM	–	> 10 µM	–	1.73 µM	–	2.1 µM
N#CCNC(=O)c1ccc(-c2ccnc(Nc3ccc(N4CCOCC4)cc3)n2)cc1 [Momelotinib]	3.37 µM	3.22 µM	> 10 µM	–	1.41 µM	1.33 µM	3.76 µM	1.97 µM	3.11 µM	> 10 µM	2.5 µM	1.64 µM	1.3 µM	2.74 µM
C[C@]12O[C@H](C[C@]1(O)CO)n1c3ccccc3c3c4c(c5c6ccccc6n2c5c31)CNC4=O [Lestaurtinib]	–	–	0.29 µM	–	0.0293 µM	0.0249 µM	0.101 µM	0.13 µM	0.155 µM	> 1 µM	0.0872 µM	0.112 µM	0.0598 µM	0.0938 µM
COc1cc2c(NC3CCN(C(C)C)CC3)nc(C3CCCCC3)nc2cc1OCCCN1CCCC1 [UNC0638]	–	> 10 µM	2.23 µM	3.39 µM	–	–	1.72 µM	2.64 µM	3.5 µM	2.54 µM	1.74 µM	2.27 µM	2.87 µM	2.73 µM
Cc1cnc(Nc2ccc(F)cc2Cl)nc1-c1c[nH]c(C(=O)N[C@H](CO)c2cccc(Cl)c2)c1 [VX-11E]	0.874 µM	0.651 µM	0.816 µM	0.896 µM	0.75 µM	0.696 µM	0.966 µM	0.905 µM	0.83 µM	> 2.5 µM	0.756 µM	0.367 µM	> 2.5 µM	–
Nc1ccn([C@@H]2O[C@H](CO)[C@@H](O)[C@@H]2O)c(=O)n1 [Cytarabine]	2.18 µM	1.96 µM	0.786 µM	–	0.283 µM	0.29 µM	1.52 µM	0.689 µM	0.236 µM	0.336 µM	0.479 µM	0.688 µM	0.21 µM	0.163 µM
Nc1nc2[nH]cnc2c(=S)[nH]1 [Thioguanine]	> 10 µM	> 10 µM	–	2.92 µM	–	> 10 µM	2.27 µM	0.642 µM	0.717 µM	> 10 µM	1.45 µM	1.12 µM	1.37 µM	1.2 µM
FC(F)c1nc2ccccc2n1-c1nc(N2CCOCC2)nc(N2CCOCC2)n1 [ZSTK474]	> 10 µM	–	> 10 µM	–	0.876 µM	0.692 µM	0.251 µM	0.658 µM	0.244 µM	> 10 µM	0.831 µM	1.05 µM	0.248 µM	0.582 µM
NC(=O)c1ccc(I)c([N+](=O)[O-])c1 [Iniparib]	> 10 µM	> 10 µM	> 10 µM	–	> 10 µM	> 10 µM	> 10 µM	> 10 µM	> 10 µM	> 10 µM	> 10 µM	> 10 µM	> 10 µM	> 10 µM
CNCc1ccc(-c2[nH]c3cc(F)cc4c3c2CCNC4=O)cc1 [Rucaparib]	> 10 µM	> 10 µM	> 10 µM	> 10 µM	> 10 µM	> 10 µM	> 10 µM	> 10 µM	> 10 µM	> 10 µM	1.04 µM	–	0.447 µM	–
